Measured values taken from paper PMC11077868, “Rutinosides-derived from Sarocladium strictum 6-O-α-rhamnosyl-β-glucosidase show enhanced anti-tumoral activity in pancreatic cancer cells” (Microbial Cell Factories, 2024).

Tests used:
[1] = test system: T1, 6-O-α-rhamnosyl-β-glucosidase (αRβG); experiment: hydrolysis; reducing sugars by […],4-dinitrosalicylic acid, Michaelis-Menten fit; type: biochemical, Sarocladium strictum; conditions: 50 mM sodium phosphate pH 6.0, 60 °C, 1 h
T1 construct: native, purified from culture supernatant of S. strictum; 99 kDa by SDS-PAGE; tryptic peptide TIHETYLAPWYDGVK matched to a 755-residue putative glycoside hydrolase (21-residue signal peptide) of another strain, A. strictum DS1bioAY4a, JGI ID 1029425

[2] = test system: T1, 6-O-α-rhamnosyl-β-glucosidase (αRβG); experiment: hydrolysis; product release, Michaelis-Menten fit; type: biochemical, Sarocladium strictum; conditions: 50 mM sodium phosphate pH 6.0, 60 °C, 1 h

Compound: COc1ccc([C@@H]2CC(=O)c3c(O)cc(O[C@@H]4O[C@H](CO[C@@H]5O[C@@H](C)[C@H](O)[C@@H](O)[C@H]5O)[C@@H](O)[C@H](O)[C@H]4O)cc3O2)cc1O [hesperidin]
- Km [1]: 700 ± 120 µM

Compound: C[C@@H]1O[C@@H](OC[C@H]2O[C@@H](Oc3c(-c4ccc(O)c(O)c4)oc4cc(O)cc(O)c4c3=O)[C@H](O)[C@@H](O)[C@@H]2O)[C@H](O)[C@H](O)[C@H]1O [rutin]
- Km [2]: 473 ± 4 µM
